The assay deals with T1, Endothelial lipase (EL) (Homo sapiens, UniProt Q9Y5X9).
T1 construct: HT-1080 cells, which were transformed by RAGE technology (Athersys) to overexpress endogenous EL; endogenous in cells; conditioned medium used as the enzyme source
T1 sequence (Q9Y5X9 21-500): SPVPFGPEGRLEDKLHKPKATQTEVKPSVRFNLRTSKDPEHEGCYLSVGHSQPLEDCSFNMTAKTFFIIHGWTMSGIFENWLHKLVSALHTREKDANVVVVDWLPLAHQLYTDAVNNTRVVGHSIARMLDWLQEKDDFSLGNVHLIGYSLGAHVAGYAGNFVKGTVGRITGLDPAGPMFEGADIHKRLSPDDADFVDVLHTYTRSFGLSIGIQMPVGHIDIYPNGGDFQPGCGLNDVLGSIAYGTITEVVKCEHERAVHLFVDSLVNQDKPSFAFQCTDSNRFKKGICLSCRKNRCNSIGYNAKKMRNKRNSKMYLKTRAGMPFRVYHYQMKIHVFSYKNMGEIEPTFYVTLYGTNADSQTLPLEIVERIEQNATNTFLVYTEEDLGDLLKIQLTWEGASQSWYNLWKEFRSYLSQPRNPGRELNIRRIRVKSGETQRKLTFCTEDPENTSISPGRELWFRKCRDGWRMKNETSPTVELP
Description: Endothelial lipase (EL) enzymatic assay with fluorescent substrate A10070 in DMPG vesicles. In kind it is biochemical. The procedure:
Endothelial lipase activity was measured using a fluorescent substrate, A10070, (Invitrogen, CA) doped into an artificial vesicle containing DMPG (Avanti Polar Lipids) as the excipient. Vesicles were prepared by combining 285 μL of 1 mM DMPG in a 1:1 mixture of MeOH and CHCl3 with 15 μL of 1 mM A10070 in a 1:1 mixture of MeOH and CHCl3. The mixture was dried under nitrogen and resuspended in 150 μL of 50 mM HEPES pH 8.0 buffer containing 100 mM NaCl and 0.2 mM EDTA. The sample was allowed to sit at rt for 15 min and then was sonicated 3×4 mins on ice with a Branson Sonicator using duty cycle 1. This preparation provides vesicles with a mole fraction of 0.05 for the FRET substrate.
The enzymatic assay was measured using white, opaque 96-well half area plates. Each well contained 60 μL of assay buffer (50 mM HEPES pH 8.0, 50 mM NaCl and 1 mM CaCl2) and 2 ul of a DMSO solution containing compound of interest. Conditioned media obtained from HT-1080 cells, which were transformed by RAGE technology (Athersys) to overexpress endogenous EL, was added and the reaction was allowed to incubate for 20 min at 37° C. with gentle agitation. The reaction was started by the addition of 20 μL of a 1:4 dilution of vesicles. The final total reaction volume was 100 μL. The reaction rates were measured on a Gemini plate reader with an excitation wavelength of 488 nm and an emission of 530 nm. Readings were taken every 20 seconds for 10 min with agitation between each reading. The slope of the linear portion of the readout was used to calculate the rate of the reaction.

[1] abbreviates: conditioned media from HT-1080 cells overexpressing endogenous EL, 20 min preincubation at 37° C., read-out: EL IC50.
[2] abbreviates: range observed in the EL assay, read-out: EL IC50 values.

In patent US9199946B2, “Pyrimidinone carboxamide inhibitors of endothelial lipase” (BRISTOL-MYERS SQUIBB COMPANY, priority 2012, dated 2015) one finds IC50 data, which are given here for 24 compounds.

Read-outs that look alike come from different tables or passages of the source. Where only a bound is given, the exact number is not on record here.

Broadly, the IC50 is the concentration needed to halve the response being measured.

For the compound `Nc1c(C(=O)NC2CCCc3c2sc2nc[nH]c(=O)c32)[nH]c(=O)[nH]c1=O` (stereo not shown) [Example 45, 5-amino-2,6-dioxo-N-(4-oxo-1,4,5,6,7,8-hexahydro[1]benzothieno[2,3-d]pyrimidin-8-yl)-1,2,3,6-tetrahydro-4-pyrimidinecarboxamide], the IC50 was 3.37 µM under setting [1] and no more than 10 µM under setting [2].

On to `Nc1c(C(=O)N[C@@H]2CCCc3cc(C(F)(F)F)ccc32)[nH]c(=O)[nH]c1=O` [Example 51, (R)-5-amino-2,6-dioxo-N-(6-(trifluoromethyl)-1,2,3,4-tetrahydronaphthalen-1-yl)-1,2,3,6-tetrahydropyrimidine-4-carboxamide], for which the IC50 under setting [2] is no more than 10 µM.

Take `Nc1c(C(=O)NC2CC=C(c3ccc(F)c(F)c3)CC2)[nH]c(=O)[nH]c1=O` (stereo not shown) [Example 202, 5-Amino-N-(4-(3,4-difluorophenyl)cyclohex-3-enyl)-2,6-dioxo-1,2,3,6-tetrahydropyrimidine-4-carboxamide]: the IC50 under setting [1] was 1.91 µM and the half-inhibitory concentration (IC50) under setting [2] is no more than 10 µM.

For `COc1cccc2c1C(NC(=O)c1[nH]c(=O)[nH]c(=O)c1N)CCC2` (single isomer, unassigned; enantiomer a) [Example 201, 5-amino-N-(8-methoxy-1,2,3,4-tetrahydronaphthalen-1-yl)-2,6-dioxo 1,2,3,6-tetrahydropyrimidine-4-carboxamide (Enantiomer A)], the concentration for half-maximal inhibition (IC50) under setting [2] was no more than 10 µM.

For `O=C(N[C@H]1CC[C@@H](c2ccccc2)CC1)c1[nH]c(=O)[nH]c(=O)c1NCCCc1ccccc1` [Example 207, 2,6-dioxo-N-(cis-4-phenylcyclohexyl)-5-(3-phenylpropylamino)-1,2,3,6-tetrahydropyrimidine-4-carboxamide], under setting [2], the IC50 is no more than 10 µM.

For `Nc1c(C(=O)N[C@H]2CC[C@@H](c3ccc(-c4ccnn4C4CCCCO4)cc3)C2)[nH]c(=O)[nH]c1=O` (stereo partly drawn) [Example 176, 5-amino-2,6-dioxo-N-((1S,3R)-3-(4-(1-(tetrahydro-2H-pyran-2-yl)-1H-pyrazol-5-yl)phenyl)cyclopentyl)-1,2,3,6-tetrahydropyrimidine-4-carboxamide], the half-inhibitory concentration (IC50) is 1.09 µM under setting [1] and no more than 10 µM under setting [2].

As for `Nc1c(C(=O)N[C@H]2CCCc3cc(OCc4ccccc4)ccc32)[nH]c(=O)[nH]c1=O` [Example 93, (S)-5-amino-N-(6-(benzyloxy)-1,2,3,4-tetrahydronaphthalen-1-yl)-2,6-dioxo-1,2,3,6-tetrahydropyrimidine-4-carboxamide], under setting [2], the IC50 is no more than 10 µM.

`CC(C)Oc1ccc(C2CCC(NC(=O)c3[nH]c(=O)[nH]c(=O)c3N)C2)cc1` (stereo not shown) [Example 142, 5-amino-N-(3-(4-isopropoxyphenyl)cyclopentyl)-2,6-dioxo-1,2,3,6-tetrahydropyrimidine-4 carboxamide]: the IC50 is, setting by setting: under setting [1], 0.039 µM; under setting [2], no more than 10 µM.

Consider `O=C(N[C@H]1CC[C@@H](c2ccccc2)CC1)c1[nH]c(=O)[nH]c(=O)c1N[C@@H]1C[C@H]2CC[C@@H]1C2` [Example 231, 5-((1R,2R,4S)-bicyclo[2.2.1]heptan-2-ylamino)-2,6-dioxo-N-(cis-4-phenylcyclohexyl)-1,2,3,6-tetrahydropyrimidine-4-carboxamide], for which the concentration for half-maximal inhibition (IC50) is, setting by setting: under setting [1], 3.84 µM; under setting [2], no more than 10 µM.

Regarding `COc1ccccc1C1CCC(NC(=O)c2[nH]c(=O)[nH]c(=O)c2N)C1` (stereo not shown) [Example 141, 5-amino-N-(3-(2-methoxyphenyl)cyclopentyl)-2,6-dioxo-1,2,3,6-tetrahydropyrimidine-4-carboxamide], the IC50 under setting [2] was no more than 10 µM.

For the compound `Nc1c(C(=O)NC2CCC(c3nc4ccc(-c5ccccc5)cc4s3)C2)[nH]c(=O)[nH]c1=O` (stereo not shown) [Example 144, 5-amino-2,6-dioxo-N-(3-(6-phenylbenzo[d]thiazol-2-yl)cyclopentyl)-1,2,3,6-tetrahydropyrimidine-4-carboxamide], under setting [2], the IC50 is no more than 10 µM.

In the case of `COc1ccc2c(c1)C(NC(=O)c1[nH]c(=O)[nH]c(=O)c1N)CC2` (stereo not shown) [Example 11, 5-amino-N-(6-methoxy-2,3-dihydro-1H-inden-1-yl)-2,6-dioxo-1,2,3,6-tetrahydropyrimidine-4-carboxamide], under setting [2], the half-maximal inhibitory concentration (IC50) is no more than 10 µM.

As for `COc1cccc(N2CC(NC(=O)c3[nH]c(=O)[nH]c(=O)c3N)CC2=O)c1` (stereo not shown) [Example 81, 5-amino-N-(1-(3-methoxyphenyl)-5-oxopyrrolidin-3-yl)-2,6-dioxo-1,2,3,6-tetrahydropyrimidine-4-carboxamide], the IC50 under setting [2] is no more than 10 µM.

As for `O=C(N[C@H]1CC[C@@H](c2ccccc2)CC1)c1[nH]c(=O)[nH]c(=O)c1O` [Example 238, Hydroxy-2,6-dioxo-N-(cis-4-phenylcyclohexyl)-1,2,3,6-tetrahydropyrimidine-4-carboxamide], the IC50 under setting [2] was no more than 10 µM.

On to `Nc1c(C(=O)N[C@@H]2CCc3ccc(C(F)(F)F)cc32)[nH]c(=O)[nH]c1=O` [Example 1, (R)-5-Amino-2,6-dioxo-N-(6-(trifluoromethyl)-2,3-dihydro-1H-inden-1-yl)-1,2,3,6-tetrahydropyrimidine-4-carboxamide], for which the concentration for half-maximal inhibition (IC50) under setting [2] is no more than 10 µM.

Consider `CC(C)Cn1cc(-c2ccc([C@@H]3CC[C@H](NC(=O)c4[nH]c(=O)[nH]c(=O)c4N)C3)cc2)cn1` [Example 172, 5-amino-N-((1S,3R)-3-(4-(1-isobutyl-1H-pyrazol-4-yl)phenyl)cyclopentyl)-2,6-dioxo-1,2,3,6-tetrahydropyrimidine-4-carboxamide], for which the IC50 under setting [2] is no more than 10 µM.

With `O=C(N[C@@H]1CCCc2c(NCc3ccccc3)cccc21)c1[nH]c(=O)[nH]c(=O)c1O` [Example 286, (R)-N-(5-(benzylamino)-1,2,3,4-tetrahydronaphthalen-1-yl)-5-hydroxy-2,6-dioxo-1,2,3,6-tetrahydropyrimidine-4-carboxamide], the 50% inhibitory concentration (IC50) under setting [2] is no more than 10 µM.

In the case of `Cc1nc(-c2ccccc2)sc1-c1ccc([C@@H]2CC[C@H](NC(=O)c3[nH]c(=O)[nH]c(=O)c3N)C2)cc1` (stereo in doubt) [Example 171, 5-amino-N-((1S,3R)-3-(4-(4-methyl-2-phenylthiazol-5-yl)phenyl)cyclopentyl)-2,6-dioxo-1,2,3,6-tetrahydropyrimidine-4-carboxamide], the 50% inhibitory concentration (IC50) runs as follows: under setting [1], 1.48 µM; under setting [2], no more than 10 µM.

Regarding `O=C(N[C@H]1CC[C@@H](c2ccccc2)CC1)c1[nH]c(=O)[nH]c(=O)c1NCCCN1CCOCC1` [Example 219, 5-(3-morpholinopropylamino)-2,6-dioxo-N-(cis-4-phenylcyclohexyl)-1,2,3,6-tetrahydropyrimidine-4-carboxamide], under setting [2], the IC50 is no more than 10 µM.

In the case of `O=C(N[C@H]1CC[C@@H](c2ccccc2)CC1)c1[nH]c(=O)n(CCO)c(=O)c1O` [Example 269, 5-Hydroxy-1-(2-hydroxyethyl)-2,6-dioxo-N-(cis-4-phenylcyclohexyl)-1,2,3,6-tetrahydropyrimidine-4-carboxamide], under setting [2], the IC50 is no more than 10 µM.

As to `Nc1c(C(=O)N[C@@H]2CCc3ccc(-c4ccccc4)cc32)[nH]c(=O)[nH]c1=O` [Example 138, (R)-5-amino-2,6-dioxo-N-(6-phenyl-2,3-dihydro-1H-inden-1-yl)-1,2,3,6-tetrahydropyrimidine-4-carboxamide], the IC50 under setting [1] was determined as 1.72 µM and the IC50 under setting [2] is no more than 10 µM.

As to `CO[C@]1(c2ccc(F)cc2)CC[C@@H](NC(=O)c2[nH]c(=O)[nH]c(=O)c2N)CC1` [Example 4, 5-amino-N-(cis-4-(4-fluorophenyl)-4-methoxycyclohexyl)-2,6-dioxo-1,2,3,6-tetrahydropyrimidine-4-carboxamide], the IC50 under setting [2] is no more than 10 µM.

In the case of `Nc1c(C(=O)N[C@H]2CC[C@H](C(=O)Nc3ccccc3)C2)[nH]c(=O)[nH]c1=O` [Example 129, 5-amino-2,6-dioxo-N-((1S,3S)-3-(phenylcarbamoyl)cyclopentyl)-1,2,3,6-tetrahydropyrimidine-4-carboxamide], under setting [2], the IC50 is no more than 10 µM.

Regarding `O=C(N[C@H]1CCN(c2ccccc2)C1)c1[nH]c(=O)[nH]c(=O)c1O` [Example 274, (S)-5-hydroxy-2,6-dioxo-N-(1-phenylpyrrolidin-3-yl)-1,2,3,6-tetrahydropyrimidine-4-carboxamide], the IC50 under setting [2] is no more than 10 µM.
